Test results published in patent US6156724A, “Uses of didemnins as immunomodulating agents” (priority 1998, dated 2000).
Like-named read-outs stand apart in the source and are kept apart here. Numbered stars: 1 amine (or outer) side, 2 acyl side, 3 side chain; on linkers, the order of the positions; unused ones are H or OH. Bridge positions count the residues as written; N and C are the ends. Square brackets hold non-standard residues; d marks the D form. Peptide text beside a SMILES is read from it. * marks the point of attachment. X1 = CC[C@H](C)[C@@H](N[*:1])[C@@H](O)CC(=O)O[C@H](C(=O)[C@H](C)C(=O)[*:2])C(C)C; X3 = CC[C@H](C)[C@H](N[*:1])[C@@H](O)CC(=O)O[C@H](C(=O)[C@H](C)C(=O)[*:2])C(C)C; NMeY = CN[C@@H](Cc1ccc(O)cc1)C(=O)O; aThr = C[C@H](O)[C@H](N)C(=O)O; NMeL = CN[C@@H](CC(C)C)C(=O)O; dNMeL = CN[C@H](CC(C)C)C(=O)O; pGlu = O=C1CC[C@@H](C(=O)O)N1; Isobutyryl = CC(C)C(=O)*; Pyruvoyl = CC(=O)C(=O)*; Lac = C[C@H](O)C(=O)O; Propionyl = CCC(=O)*; For = O=C*

Tests used:
[1] = tested on: concanavalin A-induced lymphoblasts (Con A splenocytes); assay: Lymphoblast viability (LbV) assay; conditions: Con A-stimulated splenocytes (lymphoblasts), MTT
[2] = tested on: Balb/c splenocytes (resting lymphocytes); assay: Lymphocyte viability (LcV) assay; assay type: cell-based, murine; conditions: unstimulated Balb/c splenocytes, MTT
Protocol: Forty two (42) didemnin compounds (see Table 1) were evaluated for cytotoxicity to one of the lymphocyte populations in the MLR (i.e., Balb/c splenocytes). The purpose of the lymphocyte viability assay (LcV) is to measure metabolic activity in lymphocytes after they have been exposed to the compounds for the duration of an under conditions equivalent to the MLR. The inverse of the data yields cytotoxicity information about the compounds on murine lymphocytes. The rationale of using resting cells, in this case unstimulated lymphocytes, to measure cytotoxicity has a strategic importance. In the MLR the heterogenous cell populations are predominantly resting cells when the assay begins.
Test compounds were prepared in two sets as described above. Splenocytes were prepared as described previously from one murine strain (Balb/c), and a volume of 200 μL of the cell suspension was added to one set of test compounds and control wells.
Assay plates were incubated as in the MLR and then pulsed overnight 75 μL per well MTT-thiazolyl blue solution (150 μg). The plates were decanted and the resulting insoluble formazan crystals were dissolved in 200 μL of isopropyl alcohol. Absorbance at 570 nm was measured.
The LcV data were calculated as a percentage of basal metabolic activity, or percent viability, relative to BALB/c control, and an LC50 value was interpolated for each test compound.

[3] = tested on: murine splenocytes (Balb/c and C57B1/6); assay: Two-way mixed lymphocyte reaction (MLR) assay;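 further: proliferation read as tritiated thymidine incorporation into newly made DNA after an overnight pulse, expressed as percent of control activity, IC50 interpolated per compound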
[4] = Balb/c + C57B1/6 splenocytes, 96 h, [3H]thymidine
[5] = read-out: two-way mixed lymphocyte reaction (MLR) suppression MLR, IC50, Balb/c + C57B1/6 splenocytes, 96 h, [3H]thymidine

| Compound | cytotoxicity to lymphocytes LbV, LC50 [1] | cytoxicity to lymphocytes LcV, LC50 [2] | cytoxicity to lymphocytes LcV, LC50 ([2]; highest concentration 10 μg/mL) | two-way mixed lymphocyte reaction (MLR) suppression MLR, IC50 [3, 4] | IC50 [3, 5] | IC50 ([3]; read-out: MLR IC50) |
| --- | --- | --- | --- | --- | --- | --- |
| CC[C@H](C)[C@@H]1NC(=O)[C@@H](NC(=O)[C@H](CC(C)C)N(C)C=O)[C@H](C)OC(=O)[C@H](Cc2ccc(OC)cc2)N(C)C(=O)[C@@H]2CCCN2C(=O)[C@H](CC(C)C)NC(=O)[C@@H](C)C(=O)[C@H](C(C)C)OC(=O)C[C@@H]1O [Compound 26, Didemnin G] (For-[NMeL][aThr][X3]LP[NMeY](Me); ester 2-C) | 1.1 nM | > 10000 nM | > 10 µg/mL | 0.70 ng/mL | 0.72 nM |  |
| CC[C@H](C)[C@H]1NC(=O)[C@@H](NC(=O)[C@@H](CC(C)C)N(C)C(=O)[C@@H](N)CC(C)C)[C@@H](C)OC(=O)[C@H](Cc2ccc(OC)cc2)N(C)C(=O)[C@@H]2CCCN2C(=O)[C@H](CC(C)C)NC(=O)[C@@H](C)C(=O)[C@H](C(C)C)OC(=O)C[C@@H]1O [Compound 27, N-(L-Leu)Didemnin A] (H-L[dNMeL]T[X1]LP[NMeY](Me); ester 3-C) | 3.8 nM | > 9500 nM | > 10 µg/mL | 0.78 ng/mL | 0.74 nM |  |
| CC[C@H](C)[C@H]1NC(=O)[C@@H](NC(=O)[C@@H](CC(C)C)N(C)C(=O)[C@@H]2CCCN2)[C@@H](C)OC(=O)[C@H](Cc2ccc(OC)cc2)N(C)C(=O)[C@@H]2CCCN2C(=O)[C@H](CC(C)C)NC(=O)[C@@H](C)C(=O)[C@H](C(C)C)OC(=O)C[C@@H]1O [Compound 28, N^α -(L-Pro)Didemnin A] (H-P[dNMeL]T[X1]LP[NMeY](Me); ester 3-C) | 5.1 nM | > 9600 nM | > 10 µg/mL | 1.00 ng/mL | 0.96 nM |  |
| CC[C@H](C)[C@H]1NC(=O)[C@@H](NC(=O)[C@@H](CC(C)C)N(C)C(=O)[C@H]2CCCN2)[C@@H](C)OC(=O)[C@H](Cc2ccc(OC)cc2)N(C)C(=O)[C@@H]2CCCN2C(=O)[C@H](CC(C)C)NC(=O)[C@@H](C)C(=O)[C@H](C(C)C)OC(=O)C[C@@H]1O [Compound 29, N^α -(D-Pro)-Didemnin A] (H-[dP][dNMeL]T[X1]LP[NMeY](Me); ester 3-C) | 22 nM | > 9600 nM | > 10 µg/mL | 12.2 ng/mL | 11.7 nM |  |
| CC[C@H](C)[C@H]1NC(=O)[C@@H](NC(=O)[C@@H](CC(C)C)N(C)C(=O)[C@@H]2CCCN2C(=O)C(C)=O)[C@@H](C)OC(=O)[C@H](Cc2ccc(OC)cc2)N(C)C(=O)[C@@H]2CCCN2C(=O)[C@H](CC(C)C)NC(=O)[C@@H](C)C(=O)[C@H](C(C)C)OC(=O)C[C@@H]1O [Compound 30, dehydrodidemnin B] (Pyruvoyl-P[dNMeL]T[X1]LP[NMeY](Me); ester 3-C) | 0.079 nM | 2600 nM | 2.90 µg/mL | 0.43 ng/mL | 0.38 nM |  |
| CC[C@H](C)[C@H]1NC(=O)[C@@H](NC(=O)[C@@H](CC(C)C)N(C)C(=O)[C@@H]2CCCN2C(C)=O)[C@@H](C)OC(=O)[C@H](Cc2ccc(OC)cc2)N(C)C(=O)[C@@H]2CCCN2C(=O)[C@H](CC(C)C)NC(=O)[C@@H](C)C(=O)[C@H](C(C)C)OC(=O)C[C@@H]1O [Compound 31, [Acetyl^9]Didemnin B] (Ac-P[dNMeL]T[X1]LP[NMeY](Me); ester 3-C) | 0.16 nM | 2800 nM | 3.10 µg/mL | 0.22 ng/mL | 0.21 nM |  |
| CCC(=O)N1CCC[C@H]1C(=O)N(C)[C@H](CC(C)C)C(=O)N[C@@H]1C(=O)N[C@H]([C@@H](C)CC)[C@@H](O)CC(=O)O[C@@H](C(C)C)C(=O)[C@H](C)C(=O)N[C@@H](CC(C)C)C(=O)N2CCC[C@H]2C(=O)N(C)[C@@H](Cc2ccc(OC)cc2)C(=O)O[C@@H]1C [Compound 32, [Propionyl^9]Didemnin B] (Propionyl-P[dNMeL]T[X1]LP[NMeY](Me); ester 3-C) | 0.184 nM | 1980 nM | 2.20 µg/mL | 0.26 ng/mL | 0.23 nM |  |
| CC[C@H](C)[C@H]1NC(=O)[C@@H](NC(=O)[C@@H](CC(C)C)N(C)C(=O)[C@@H]2CCCN2C(=O)C(C)C)[C@@H](C)OC(=O)[C@H](Cc2ccc(OC)cc2)N(C)C(=O)[C@@H]2CCCN2C(=O)[C@H](CC(C)C)NC(=O)[C@@H](C)C(=O)[C@H](C(C)C)OC(=O)C[C@@H]1O [Compound 33, [Isobutyryl^9]Didemnin B] (Isobutyryl-P[dNMeL]T[X1]LP[NMeY](Me); ester 3-C) | 0.204 nM | 2240 nM | 2.40 µg/mL | 0.041 ng/mL | 0.037 nM |  |
| CC[C@H](C)[C@H]1NC(=O)[C@@H](NC(=O)[C@@H](CC(C)C)N(C)C(=O)[C@H]2CCCN2C(=O)C(C)C)[C@@H](C)OC(=O)[C@H](Cc2ccc(OC)cc2)N(C)C(=O)[C@@H]2CCCN2C(=O)[C@H](CC(C)C)NC(=O)[C@@H](C)C(=O)[C@H](C(C)C)OC(=O)C[C@@H]1O [Compound 34, [Isobutyryl^9, D-Pro^8] Didemnin B] (Isobutyryl-[dP][dNMeL]T[X1]LP[NMeY](Me); ester 3-C) | 4.81 nM | 5600 nM | 6.20 µg/mL | 0.67 ng/mL | 0.6 nM |  |
| CC[C@H](C)[C@H]1NC(=O)[C@@H](NC(=O)[C@@H](CC(C)C)N(C)C(=O)[C@H](C)NC(=O)[C@H](C)O)[C@@H](C)OC(=O)[C@H](Cc2ccc(OC)cc2)N(C)C(=O)[C@@H]2CCCN2C(=O)[C@H](CC(C)C)NC(=O)[C@@H](C)C(=O)[C@H](C(C)C)OC(=O)C[C@@H]1O [Compound 35, [L-Ala^8]Didemnin B] | 0.717 nM | > 9200 nM | > 10 µg/mL | 0.33 ng/mL | 0.31 nM |  |
| CC[C@H](C)[C@H]1NC(=O)[C@@H](NC(=O)[C@@H](CC(C)C)N(C)C(=O)[C@@H]2CCCN2C(=O)[C@H](C)OC(=O)[C@H](CCC(N)=O)NC(=O)[C@H](CCC(N)=O)NC(=O)[C@@H]2CCC(=O)N2)[C@@H](C)OC(=O)[C@H](Cc2ccc(OC)cc2)N(C)C(=O)[C@@H]2CCCN2C(=O)[C@H](CC(C)C)NC(=O)[C@@H](C)C(=O)[C@H](C(C)C)OC(=O)C[C@@H]1O [Compound 39, Didemnin E] ([pGlu]QQ[Lac]P[dNMeL]T[X1]LP[NMeY](Me); ester 7-C) | 1.4 nM | > 6770 nM | > 10 µg/mL | 0.012 ng/mL | 0.0084 nM | 0.0084 nM |
| CC[C@H](C)[C@H]1NC(=O)[C@@H](NC(=O)[C@@H](CC(C)C)N(C)C(=O)[C@@H]2CCCN2C(=O)[C@H](C)OC(=O)[C@H](CCC(N)=O)NC(=O)[C@H](CCC(N)=O)NC(=O)[C@H](CCC(N)=O)NC(=O)[C@@H]2CCC(=O)N2)[C@@H](C)OC(=O)[C@H](Cc2ccc(OC)cc2)N(C)C(=O)[C@@H]2CCCN2C(=O)[C@H](CC(C)C)NC(=O)[C@@H](C)C(=O)[C@H](C(C)C)OC(=O)C[C@@H]1O [Compound 40, Didemnin D] ([pGlu]QQQ[Lac]P[dNMeL]T[X1]LP[NMeY](Me); ester 8-C) | 0.85 nM | > 6220 nM | > 10 µg/mL | 0.20 ng/mL | 0.12 nM |  |
| Didemnin X [Compound 41] | 3.1 nM | 6010 nM | 10.0 µg/mL | 0.83 ng/mL | 0.5 nM |  |
